Key:
[1] = system: protein synthesis; experiment: Assessment of translation rates (35S-methionine labelling); assay type: cell-based
Protocol: Cells (90,000 cells/ml) were plated in 12-well plates, treated as indicated, labelled with 100 μCi/mI 35S-methionine (Hartmann Analytic) for 10 minutes at 37° C., washed with ice-cold PBS and lysed in 120 μl Laemmli Buffer. Lysates were boiled at 95° C. for 5 minutes, sonicated and resolved on 4-12% Bolt Bis-Tris Plus Gels (Thermo Fisher Scientific). Gels were then stained with InstantBlue (Expedeon) and analyzed by phosphorimaging and quantified using ImageJ.
By monitoring translation rates as described above, the activities of R15A, R15B and R15A/B inhibitors can be defined as follows (also shown in FIG. 12). An R15A inhibitor has no effect on translation in unstressed cells but prolongs translation attenuation following stress. A selective R15B inhibitor transiently attenuate protein synthesis because R15A compensates for the inhibition of R15B.

[2] = system: dorsal root ganglia culture (DRG) from PMP22 mutant mice; experiment: Myelination in DRG explants from neuropathic mice; assay type: cell-based; conditions: 5 nM, 14 days
Protocol: Dorsal root ganglia (DRG) dissected from wild-type or Pmp22Tr-J (PMP22mutant) (Henry et al., Neuropathol. Exp. Neurol., 42, 688-706, 1983) embryo at 13.5 or […] (E13.5) were cultured on collagen coated coverslips in neurobasal media supplemented with 4 g/l glucose, 2 mM L-glutamine, 2% B27 supplement and 50 ng/ml neuronal growth factor (NGF) for 7 days. To differentiate Schwann cells and induce myelination, the cultured DRGs were then maintained in C-media (MEM media supplemented with 4 g/I glucose, 2 mM L-glutamine, 10% FCS, 50 ng/ml NGF). The C-media was replaced every other day with freshly added 50 μg/ml ascorbic acid ±5 nM of compound of Example I and cultured for 14 days for myelination by the Schwann cells. The cultured DRGs were then fixed in 4% paraformaldehyde and immunostained with MBP (Rat Myelin basic protein, 1/250 dilution, ab73498).
CMT is a group of myelin neuropathies caused by mutations in a number of genes. Mutations in the peripheral myelin protein PMP22 are the most common causes of CMT. A mutation in PMP22 (Trembler-J) causes the misfolding of PMP22 and a disease in mice that resembles CMT in human due to defects in myelin in the peripheral nervous system. Explants from PM P22 mutant mice recapitulates the severe hypomyelination observed in the human diseases. […] The compound of Example 1 will also be useful in the treatment of other myelin disorders.

[3] = target: T1, PPP1R15B-PP1 (Homo sapiens, UniProt Q5SWA1); experiment: SPR steady-state binding to R15B-PP1 holophosphatase; conditions: SPR, FIG. 1; read-out: KD for PPP1R15B-PP1
T1 construct: cDNAs encoding amino acids 325-636 of PPP1R15A and 340-698 of PPP1R15B were His-tagged and cloned into pMAL-c5x; made in house; host or cells: R15B: E. coli BL21-Gold (pMAL-c5x); PP1γ: Sf9 insect cells (baculovirus, pDW464)
T1 sequence (Q5SWA1 340-698): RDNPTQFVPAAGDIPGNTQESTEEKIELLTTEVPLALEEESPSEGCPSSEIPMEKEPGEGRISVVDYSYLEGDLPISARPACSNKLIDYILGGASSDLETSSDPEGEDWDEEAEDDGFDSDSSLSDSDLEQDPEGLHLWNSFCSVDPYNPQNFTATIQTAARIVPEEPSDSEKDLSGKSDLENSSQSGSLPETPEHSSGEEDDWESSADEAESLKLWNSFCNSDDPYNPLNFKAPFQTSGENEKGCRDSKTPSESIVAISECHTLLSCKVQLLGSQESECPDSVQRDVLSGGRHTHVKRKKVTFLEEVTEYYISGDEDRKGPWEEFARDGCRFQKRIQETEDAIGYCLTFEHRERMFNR
T1 sequence (P36873 whole entry partner, the tested form may be a part): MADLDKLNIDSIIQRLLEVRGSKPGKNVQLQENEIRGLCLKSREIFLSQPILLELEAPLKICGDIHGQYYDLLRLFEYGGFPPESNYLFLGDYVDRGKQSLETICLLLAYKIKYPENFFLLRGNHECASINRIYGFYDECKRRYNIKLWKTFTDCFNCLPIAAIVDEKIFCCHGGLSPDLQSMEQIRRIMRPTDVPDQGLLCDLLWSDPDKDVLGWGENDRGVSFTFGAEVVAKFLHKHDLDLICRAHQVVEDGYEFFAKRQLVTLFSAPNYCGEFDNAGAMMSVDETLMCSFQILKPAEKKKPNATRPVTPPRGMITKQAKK
Protocol: PPP1R15A^325-636 and PPP1R15B^340-698 were expressed and purified as follows: the cDNAs encoding amino acids 325-636 of PPP1R15A and 340-698 of PPP1R15B were His-tagged and cloned into pMAL-c5x. Recombinant PPP1R15A/B were expressed in BL21-Gold cells and purified by affinity chromatography on a HisTrap HP column (GE Healthcare), followed by a MBPTrap HP column (GE Healthcare). The proteins were analyzed on BOLT SDS-PAGE 4-12% Bis-Tris gels (Life Technologies) stained with SimplyBlue SafeStain (Life Technologies). cDNA encoding for human PP1γ was cloned into the baculovirus transfer vector pDW464 to add a biotin acceptor peptide (BAP). The vector also encodes for the E. coli biotin holoenzyme synthetase (BirA), so that BAP-tagged proteins can be biotinylated in vivo in Spodoptere frugiperda (Sf9) insect cells (Duffy et al., Anal. Biochem., 262, 122-128, 1998). The Bac-to-Bac baculovirus expression system (Life Technologies) was used to generate the recombinant bacmid DNA and Sf9 insect cells were used to amplify the viral stocks Cultures were harvested by centrifuging at 1,200 g for 15 minutes, cell pellets were resuspended in lysis buffer (50 mM Tris pH 7.4, 150 mM NaCl, 0.2% Triton, 5% Glycerol, 1 PiC tablet (Roche) per 50 ml and 0.2 mM PMSF) and followed by gentle sonication. The protein was first purified on a 5 ml HiTrap Q HP column (GE Healthcare) followed by a HiLoad 16/600 Superdex 200 column (GE Healthcare). The positive fractions confirmed by SDS-PAGE and western blot were pooled, concentrate to ˜1 μM and stored at −80° C.
A Biacore T200 (GE Healthcare) system was used for all experiments and biotinylated PP1 was captured using a Sensor Chip SA (GE Healthcare, catalog no BR-1005-31). The streptavidin coated surface was activated by 1 min injection with a solution of 50 mM NaOH and 1 M NaCl. Biotin-PP1 was diluted in the running buffer (50 mM Tris pH 7.5, 100 mM NaCl, 0.1 mM EGTA, 1 mM MnCl2, 0.05% Tween 20) and injected at approximately 300 nM concentration directly to streptavidin coated surface for 100 sec or to reach immobilization level of biotin-PP1 corresponding to ˜7000 RU. A blank immobilization was performed for one of the SA sensor chip surface to use as a reference.
With minor deviations, the same procedure and conditions were used in all binding experiments. Small molecules were stored as 50 mM stock solutions in 100% DMSO. Prior to determining binding constants, serial dilutions of either 12 or 8 concentrations of the compounds were prepared in the running buffer in a 96-well plate. Prior to each compound dilution series the regulatory subunit, R15A or R15B, was diluted to […] in the running buffer and captured on the biotin-PP1 surface, to form the holophosphatase complex on the sensor chip surface. Then, without regenerating the surface, the compound dilution series was injected onto the surface of the chip Sensorgrams were analyzed using the Biacore T200 evaluation software and the binding constants determined based on a steady-state model. Kinetic experiments are carried out using different concentrations of the compound and their respective equilibrium binding levels determined.
Surface Plasmon Resonance (SPR) was used to measure the binding affinity of compounds to the PPP1R15A/B-PP1 phosphatase complex. Biotin acceptor peptide (BAP) was fused to the N-terminus of PP1γ, which enables the biotinylation of the BAP-tagged protein in Sf9 insect cells. After purification the BAP-PP1γ protein was captured on a streptavidin sensor chip (SA-chip, GE healthcare) to a response level of ˜5.000 RU. Using controlled biotinylation enables orientated and uniform immobilization on the sensor chip surface. The PP1γ was then used to capture PPP1R15A/B and form a holophosphatase complex on the surface of the streptavidin chip. This complex can then be used to test binding of compounds. 10 μM PPP1R15A/B protein concentration was used to form the holophosphatase complex during a 80 s injection. […]

## [H]/N=C(\N)NN=Cc1cccc(Cl)c1Cl [Compound 16, (E)-2-(2,3-dichlorobenzylidene)hydrazine-1-carboximidamide]
[1]; 35S-methionine labelling of cells
  Effect on translation: Transient
[1]; unstressed cells, 10 μM, FIG. 12
  protein synthesis rates: transiently inhibits protein synthesis in unstressed cells
[2]
  length of myelin internodes: increased the length of myelin internodes in mutant DRG
[3]
  Kd: 35 nM
